Data taken from patent publication US7009052B2, “Sulfonamide derivatives” (Warner Lambert Company LLC, priority 2003, dated 2006).

These compounds were tested against T1, androgen receptor (Homo sapiens, UniProt P10275) (assay: AR Antagonist Cell Assay (MMTV-luciferase reporter, DHT-induced)). Details: MDA-MB453-MMTV clone 54-19 cells, 100 pM DHT, 17 hr.
T1 sequence (P10275 1-920 Q868H): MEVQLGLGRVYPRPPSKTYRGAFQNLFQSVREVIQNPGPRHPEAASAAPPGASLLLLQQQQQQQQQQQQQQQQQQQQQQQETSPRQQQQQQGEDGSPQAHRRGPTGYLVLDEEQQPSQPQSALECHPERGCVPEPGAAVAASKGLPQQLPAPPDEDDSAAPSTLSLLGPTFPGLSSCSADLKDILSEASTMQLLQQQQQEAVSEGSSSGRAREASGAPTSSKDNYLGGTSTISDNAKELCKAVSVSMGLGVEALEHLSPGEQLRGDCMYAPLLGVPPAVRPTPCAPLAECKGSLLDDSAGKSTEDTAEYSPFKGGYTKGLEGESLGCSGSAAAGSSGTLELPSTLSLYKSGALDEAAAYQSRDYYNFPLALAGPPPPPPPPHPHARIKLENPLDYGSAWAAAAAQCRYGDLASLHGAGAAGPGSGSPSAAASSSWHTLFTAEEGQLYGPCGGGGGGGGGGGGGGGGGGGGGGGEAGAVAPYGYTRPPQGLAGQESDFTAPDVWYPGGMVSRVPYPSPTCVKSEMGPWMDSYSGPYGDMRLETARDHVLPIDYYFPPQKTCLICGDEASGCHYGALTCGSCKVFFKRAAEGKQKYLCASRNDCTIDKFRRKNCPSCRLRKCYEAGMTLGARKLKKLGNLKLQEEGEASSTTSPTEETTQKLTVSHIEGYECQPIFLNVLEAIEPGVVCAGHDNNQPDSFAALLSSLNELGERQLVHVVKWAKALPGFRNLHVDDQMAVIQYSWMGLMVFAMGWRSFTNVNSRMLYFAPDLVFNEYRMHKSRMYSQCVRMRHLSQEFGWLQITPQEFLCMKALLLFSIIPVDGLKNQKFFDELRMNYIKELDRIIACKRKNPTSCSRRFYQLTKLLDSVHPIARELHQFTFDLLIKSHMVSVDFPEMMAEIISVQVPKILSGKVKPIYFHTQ
Assay type: cell-based
Procedure: The compounds ability to antagonize the effects of androgen on the androgen receptor were determined in the protocol described immediately below.
Experimental Procedure for AR Antagonist Cell Assay
Cell line: MDA-MB453-MMTV clone 54-19. This cell line is a stable transfected cell line with MDA-MB453 cell background (human breast tumor cell expressing high level of androgen receptor). A MMTV minimal promoter containing ARE was first cloned in front of a firefly luciferase reporter gene. Then the cascade was cloned into transfection vector pUV120puro. Electroporation method was used for transfecting MDA-MB-453 cell. Puromycin resistant stable cell line was selected.
Cell Culture Media and Reagents:
Culture medium: DMEM (high glucose, Gibco cat #: 11960-044), 10% FBS, and 1% L-glutamine
Plating medium: DMEM (phenol red free), 10% charcoal treated HyClone serum, 1% L-glutamine
Assay medium: DMEM (phenol red free), 1% charcoal treated HyClone serum, 1% L-glutamine, and 1% penicillin/streptomycin
3× luciferase buffer: 2% beta-mercaptoethanol, 0.6% ATP, 0.0135% luciferine in cell lysis buffer
• 1. Cells are maintained in culture medium, splitting cells when they reach 80–90% confluence • 2. To test compounds, 10,000 cells/well are plated to opaque 96 cell culture plate in 100 ul/well plating medium, culture for overnight at 37° C. in cell culture incubator • 3. Carefully remove plating medium, then add 80 ul/well of pre-warmed assay medium, add 10 ul/well testing compound (final concentration at 10 uM or 1 uM), incubate at 37° C. for 30 minutes • 4. Add 10 ul/well freshly prepared DHT (final concentration at 100 pM) to each well, incubate at 37° C. for 17 hr (overnight) • 5. Add 50 ul/well 3× luciferase buffer, incubate at room temperature for 5 minutes, then count on Luminometer The fold induction over background by 100 pM DHT in the absence of testing compounds is standardized as 100% and experimental result is expressed as percentage of inhibition by testing compounds. TABLE3

Row | IC50 | SMILES
1 | 2960 nM | Cn1c(=O)cc(C(F)(F)F)c2cc(S(=O)(=O)Nc3ccc(-n4ccc(C(F)(F)F)n4)cc3)ccc21 [Example 47, 1-Methyl-2-oxo-4-trifluoromethyl-1,2-dihydroquinoline-6-sulfonicacid [4-(3-trifluoromethylpyrazol-1-yl)phenyl]amide]
2 | 1130 nM | COc1cccc(NS(=O)(=O)c2ccc3c(c2)c(C(F)(F)F)cc(=O)n3C)c1 [Example 48, 1-Methyl-2-oxo-4-trifluoromethyl-1,2-dihydroquinoline-6-sulfonicacid (3-methoxyphenyl)amide]
3 | > 10000 nM | Cn1c(=O)cc(C(F)(F)F)c2cc(S(=O)(=O)NCCC(C)(C)C)ccc21 [Example 49, 1-Methyl-2-oxo-4-trifluoromethyl-1,2-dihydroquinoline-6-sulfonicacid (3,3-dimethylbutyl)amide]
4 | 1550 nM | Cn1c(=O)cc(C(F)(F)F)c2cc(S(=O)(=O)NCCc3ccccc3)ccc21 [Example 50, 1-Methyl-2-oxo-4-trifluoromethyl-1,2-dihydroquinoline-6-sulfonicacid phenethylamide]
5 | > 10000 nM | Cc1ccc(CNS(=O)(=O)c2ccc3c(c2)c(C(F)(F)F)cc(=O)n3C)cc1 [Example 51, 1-Methyl-2-oxo-4-trifluoromethyl-1,2-dihydroquinoline-6-sulfonicacid 4-methylbenzylamide]
6 | > 10000 nM | Cc1ccccc1CNS(=O)(=O)c1ccc2c(c1)c(C(F)(F)F)cc(=O)n2C [Example 52, 1-Methyl-2-oxo-4-trifluoromethyl-1,2-dihydroquinoline-6-sulfonicacid 2-methylbenzylamide]
7 | 1840 nM | Cn1c(=O)cc(C(F)(F)F)c2cc(S(=O)(=O)NCCC3=CCCCC3)ccc21 [Example 53, 1-Methyl-2-oxo-4-trifluoromethyl-1,2-dihydroquinoline-6-sulfonicacid (2-cyclohex-1-enylethyl)amide]
8 | 5680 nM | Cn1c(=O)cc(C(F)(F)F)c2cc(S(=O)(=O)NCCc3cccs3)ccc21 [Example 54, 1-Methyl-2-oxo-4-trifluoromethyl-1,2-dihydroquinoline-6-sulfonicacid (2-thiophen-2-ylethyl)amide]
9 | 4310 nM | Cn1c(=O)cc(C(F)(F)F)c2cc(S(=O)(=O)NC3CCc4ccccc43)ccc21 (centres unmarked) [Example 55, 1-Methyl-2-oxo-4-trifluoromethyl-1,2-dihydroquinoline-6-sulfonicacid indan-1-ylamide]
10 | 2730 nM | CC(CNS(=O)(=O)c1ccc2c(c1)c(C(F)(F)F)cc(=O)n2C)c1ccccc1 (centres unmarked) [Example 56, 1-Methyl-2-oxo-4-trifluoromethyl-1,2-dihydroquinoline-6-sulfonicacid (2-phenylpropyl)amide]
11 | > 10000 nM | Cn1c(=O)cc(C(F)(F)F)c2cc(S(=O)(=O)NCCCCc3ccccc3)ccc21 [Example 57, 1-Methyl-2-oxo-4-trifluoromethyl-1,2-dihydroquinoline-6-sulfonicacid (4-phenylbutyl)amide]
12 | 5400 nM | COc1ccccc1CCNS(=O)(=O)c1ccc2c(c1)c(C(F)(F)F)cc(=O)n2C [Example 58, 1-Methyl-2-oxo-4-trifluoromethyl-1,2-dihydroquinoline-6-sulfonicacid [2-(2-methoxyphenyl)ethyl]amide]
13 | > 10000 nM | Cn1c(=O)cc(C(F)(F)F)c2cc(S(=O)(=O)NCc3cc(Cl)ccc3F)ccc21 [Example 59, 1-Methyl-2-oxo-4-trifluoromethyl-1,2-dihydroquinoline-6-sulfonicacid 5-chloro-2-fluorobenzylamide]
14 | 6330 nM | Cn1c(=O)cc(C(F)(F)F)c2cc(S(=O)(=O)NCCc3c[nH]c4ccccc34)ccc21 [Example 60, 1-Methyl-2-oxo-4-trifluoromethyl-1,2-dihydroquinoline-6-sulfonicacid [2-(1H-indol-3-yl)ethyl]amide]
15 | 1530 nM | Cn1c(=O)cc(C(F)(F)F)c2cc(S(=O)(=O)NCCSC(C)(C)C)ccc21 [Example 61, 1-Methyl-2-oxo-4-trifluoromethyl-1,2-dihydroquinoline-6-sulfonicacid (2-tert-butylsulfanylethyl)amide]
16 | 3920 nM | Cn1c(=O)cc(C(F)(F)F)c2cc(S(=O)(=O)NCc3ccccc3C(F)(F)F)ccc21 [Example 62, 1-Methyl-2-oxo-4-trifluoromethyl-1,2-dihydroquinoline-6-sulfonicacid 2-trifluoromethyl-benzylamide]
17 | > 10000 nM | Cn1c(=O)cc(C(F)(F)F)c2cc(S(=O)(=O)NCCSCc3c(F)cccc3Cl)ccc21 [Example 63, 1-Methyl-2-oxo-4-trifluoromethyl-1,2-dihydroquinoline-6-sulfonicacid [2-(2-chloro-6-fluorobenzylsulfanyl)ethyl]-amide]
18 | > 10000 nM | O=c1cc(C(F)(F)F)c2cc(S(=O)(=O)NCc3cccnc3)ccc2o1 [Example 64, 2-Oxo-4-trifluoromethyl-2H-chromene-6-sulfonic acid(pyridin-3-ylmethyl)amide]
19 | > 10000 nM | CC(C)(NS(=O)(=O)c1ccc2oc(=O)cc(C(F)(F)F)c2c1)c1ccccc1 [Example 65, 2-Oxo-4-trifluoromethyl-2H-chromene-6-sulfonic acid (1-methyl-1-phenylethyl)amide]
20 | > 10000 nM | CSc1ccccc1CNS(=O)(=O)c1ccc2oc(=O)cc(C(F)(F)F)c2c1 [Example 66, 2-Oxo-4-trifluoromethyl-2H-chromene-6-sulfonic acid 2-methylsulfanylbenzylamide]
21 | > 10000 nM | O=c1cc(C(F)(F)F)c2cc(S(=O)(=O)NCCc3c[nH]c4ccccc34)ccc2o1 [Example 67, 2-Oxo-4-trifluoromethyl-2H-chromene-6-sulfonic acid [2-(1H-indol-3-yl)ethyl]amide]
22 | 550 nM | CC(C)N(C)S(=O)(=O)c1ccc2[nH]c(=O)cc(C(F)(F)F)c2c1 [Example 70, 2-Oxo-4-trifluoromethyl-1,2-dihydroquinoline-6-sulfonic acidisopropylmethylamide]
23 | 1310 nM | O=c1cc(C(F)(F)F)c2cc(S(=O)(=O)N(CCO)Cc3ccccc3)ccc2[nH]1 [Example 71, 2-Oxo-4-trifluoromethyl-1,2-dihydroquinoline-6-sulfonic acidbenzyl(2-hydroxyethyl)amide]
24 | 550 nM | CCCN(CC1CC1)S(=O)(=O)c1ccc2[nH]c(=O)cc(C(F)(F)F)c2c1 [Example 73, 2-Oxo-4-trifluoromethyl-1,2-dihydroquinoline-6-sulfonic acidcyclopropylmethyl-propylamide]
25 | 5720 nM | CN(C1CCCCC1)S(=O)(=O)c1ccc2[nH]c(=O)cc(C(F)(F)F)c2c1 [Example 75, 2-Oxo-4-trifluoromethyl-1,2-dihydroquinoline-6-sulfonic acidcyclohexylmethylamide]

Row | SMILES | IC50
26 | CCCCN(CCCC)S(=O)(=O)c1ccc2[nH]c(=O)cc(C(F)(F)F)c2c1 [Example 68, 2-Oxo-4-trifluoromethyl-1,2-dihydroquinoline-6-sulfonic aciddibutylamide] | 410 nM
27 | CCCCN(CC)S(=O)(=O)c1ccc2[nH]c(=O)cc(C(F)(F)F)c2c1 [Example 69, 2-Oxo-4-trifluoromethyl-1,2-dihydroquinoline-6-sulfonic acidbutylethylamide] | 200 nM
28 | CN(C)CCN(C)S(=O)(=O)c1ccc2[nH]c(=O)cc(C(F)(F)F)c2c1 [Example 72] | > 10000 nM
29 | CCCCCN(CCO)S(=O)(=O)c1ccc2[nH]c(=O)cc(C(F)(F)F)c2c1 [Example 74, 2-Oxo-4-trifluoromethyl-1,2-dihydroquinoline-6-sulfonic acid(2-hydroxyethyl)-pentylamide] | 290 nM
